Legend:
healthy young adults [1] = experiment: Berg-Washington Card Sorting Task Test; assay type: in vivo; conditions: 200 mg paraxanthine, 5 g BHB, 200 mg paraxanthine and 5 g BHB
Description: The Berg-Washington Card Sorting Task (BCST) test is a test routinely used in the field to evaluate cognitive flexibility. The BCST test focuses on basic cognitive flexibility or set-shifting between old vs. new rule changes. The test involves reasoning, learning, executive control, and attention shifting. It is particularly sensitive to the subject's inability to shift set. Cards are shown with different colors (e.g., red, green, yellow, blue), different designs (e.g., circle, triangle, star, plus sign) and different numbers of symbols (e.g., 1-4) on the computer screen. Participants are asked to sort the cards by matching colors and/or designs and/or number of symbols, where the instruction for how to sort the cards can change, at different times during the test. Number of correct responses and number of errors (particular perservative errors, where the participant incorrectly continues sorting the cards under an old instruction, after a new instruction is given) are recorded. When running each such tests, subjects are given either paraxanthine+BHB, paraxanthine alone, BHB alone, or a placebo. The dosage amounts are 200 mg paraxanthine and 5 g of BHB, 200 mg of paraxanthine alone, 5 g of BHB alone, or a placebo. The testing is conducted under double blind, placebo controlled conditions. […]

healthy young adults [2] = experiment: Go/No Go Attention and Inhibitory Control Test; assay type: in vivo; conditions: 200 mg paraxanthine; 5 g BHB; 200 mg paraxanthine and 5 g BHB; baseline and 1-6 hours after supplementation; FIG. 5
Description: Attention and inhibitory control can be measured using a Go/No Go Test, which is used to measure a participant's capacity for sustained attention and response control. The Go/No Go Test is routinely used in the field, and will be familiar to those of skill in the art. In the Go/No Go Test, participants watch a 2×2 array of squares, and then there is a successive presentation of letters (e.g., either P or R) and the participant responds to a target letter by pressing the corresponding button on a keyboard. The single letter (P or R) is presented in one of the 4 squares for 500 milliseconds, with 1500 milliseconds between subsequent stimuli. For the P-Go condition, participants are asked to press the P key in response to the letter P, and abstain from responding to the letter R. For the R-reversal condition, the participants are asked to respond to the letter R, and abstain when seeing the letter P. Mean response time, as well as percentage of correct answers are recorded. When running each such tests, subjects are given either paraxanthine+BHB, paraxanthine alone, BHB alone, or a placebo. The dosage amounts are 200 mg paraxanthine and 5 g of BHB, 200 mg of paraxanthine alone, 5 g of BHB alone, or a placebo. The testing is conducted under double blind, placebo controlled conditions. […]

healthy young adults [3] = experiment: Vigilance Task Test; assay type: in vivo; conditions: 200 mg paraxanthine; 5 g BHB; 200 mg paraxanthine and 5 g BHB; baseline and 1-6 hours after supplementation; FIG. 6
Description: The Vigilance Task Test is another test routinely used in the field, and is used to evaluate a participants ability to sustain attention. The Vigilance Task Test is a sustained attention, reaction timed task test that measures the speed with which participants respond to a visual stimulus. The subjects respond to visual stimuli (e.g., a red dot) by pressing a key as soon as it appears on the computer screen. The light turns on at random, e.g., roughly every couple of seconds or so during the test. The speed of response is measured. Due to the random nature of the test, there is no learning effect. Mean response time is recorded. When running each such tests, subjects are given either paraxanthine+BHB, paraxanthine alone, BHB alone, or a placebo. The dosage amounts are 200 mg paraxanthine and 5 g of BHB, 200 mg of paraxanthine alone, 5 g of BHB alone, or a placebo. The testing is conducted under double blind, placebo controlled conditions. The subjects include 13 healthy young adults (10 male, 3 female), aged 24±5 years; height 170.0±11.8 cm; weight 72.9±19.3 kg.

[4] = Clinical Resting Energy Expenditure study; assay type: in vivo; conditions: paraxanthine 100 mg or 300 mg; BHB 5 g; paraxanthine 100 mg or 300 mg with BHB 5 g; 180-day period
Protocol: FIGS. 16A-16B show expected results of a clinical Resting Energy Expenditure study, where participants are supplemented with paraxanthine alone (100 mg or 300 mg), BHB alone (5 g), or paraxanthine (100 mg or 300 mg) in combination with BHB (5 g) over a 180-day period. […] Because of the presence of the BHB ketone body component, such increased metabolic rate is also more likely to occur within the context of ketogenic state, where fat is principally used as the caloric energy source for the increased resting metabolic rate.

[5] = cited from earlier work
[6] = elevated doses; cited from earlier work
[7] = Clinical Stroop Test study; assay type: in vivo; conditions: paraxanthine 200 mg; BHB 5 g; paraxanthine 200 mg with BHB 5 g; 6-week period; FIGS. 15A-15C
Description: The Stroop effect refers to the delay in reaction time between congruent and incongruent stimuli. […] When paired with paraxanthine, the combination provides a synergistic improvement in mental acuity.

adenosine A2a receptors = adenosine A2a receptors (Homo sapiens, UniProt P29274); conditions: compared with caffeine; cited from earlier work
Chain of adenosine A2a receptors (P29274 whole entry): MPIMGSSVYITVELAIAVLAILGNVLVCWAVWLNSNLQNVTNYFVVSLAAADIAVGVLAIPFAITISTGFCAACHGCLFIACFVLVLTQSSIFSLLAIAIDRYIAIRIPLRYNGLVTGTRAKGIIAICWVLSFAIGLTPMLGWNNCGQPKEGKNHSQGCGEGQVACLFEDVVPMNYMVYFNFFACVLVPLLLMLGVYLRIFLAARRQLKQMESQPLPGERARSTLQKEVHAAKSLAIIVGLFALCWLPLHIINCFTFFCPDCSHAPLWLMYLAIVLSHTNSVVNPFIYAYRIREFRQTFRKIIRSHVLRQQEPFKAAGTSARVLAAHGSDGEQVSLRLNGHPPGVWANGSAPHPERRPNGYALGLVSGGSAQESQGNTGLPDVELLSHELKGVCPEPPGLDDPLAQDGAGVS

Cn1c(=O)[nH]c2ncn(C)c2c1=O [paraxanthine, 1,7-dimethylxanthine]
Berg-Washington Card Sorting Task Test number of correct responses (healthy young adults [1]; FIG. 7): significant increase in the number of correct responses | Berg-Washington Card Sorting Task Test number of errors (healthy young adults [1]; FIG. 8): reduction in the number of errors | Go/No Go Test average response time (healthy young adults [2]): faster response times | Vigilance Task Test average response time (healthy young adults [3]): faster response times | resting energy expenditure [4]: some increase in resting energy expenditure | half-life ([5]; elimination half-life, FIG. 3): 3.1 h | Total plasma clearance ([5]; in vivo): 2.20 mL/min/kg | hypothermia and reduced locomotor activity [6]: no such problems are observed | Stroop test number of correct answers [7]: some improvement | Stroop test reaction speed [7]: some improvement | binding potency for adenosine A2a receptors (adenosine A2a receptors): higher binding potencies

Source: US12144814B2, “Compositions containing paraxanthine and beta-hydroxybutyrate or precursor for increasing neurological and physiological performance” (priority 2023, dated 2024)
